Laboratory results from US5202315A, “Cephalosporin compounds” (Lucky, Ltd., priority 1989, dated 1993).
≈ marks a conversion by molar mass, not a printed value.

Columns and labels:
Experiment in all cases: Antibacterial activity, MIC
Format in all cases: cell-based
[1] = system: Acinetobacter calcoaceticus ATCC 15473; conditions: ATCC15473, ATCC 15473, agar two-fold dilution, 37° C., 20 hours, read-out: MIC
Summary of the method: (§1)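 MIC by two-fold serial dilution in Mueller-Hinton agar; inoculum 2 μl at 10^7 CFU/ml; 37 °C, 20 h.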

[2] = system: Bacillus cereus ATCC 11778; conditions: ATCC11778, ATCC 11778, agar two-fold dilution, 37° C., 20 hours, read-out: MIC
Summary of the method: as §1

[3] = system: Bacillus megaterium ATCC 9885; conditions: Priestia megaterium, ATCC9885; ATCC 9885; agar two-fold dilution, 37° C., 20 hours; read-out: MIC
Summary of the method: as §1

[4] = system: Citrobacter freundii ATCC 8090; conditions: ATCC8090, ATCC 8090, agar two-fold dilution, 37° C., 20 hours, read-out: MIC
Summary of the method: as §1

[5] = system: Enterobacter aerogenes ATCC 29751; conditions: Klebsiella aerogenes, ATCC29751; ATCC 29751; agar two-fold dilution, 37° C., 20 hours; read-out: MIC
Summary of the method: as §1

[6] = system: Enterobacter cloacae ATCC 27508; conditions: ATCC27508, ATCC 27508, agar two-fold dilution, 37° C., 20 hours, read-out: MIC
Summary of the method: as §1

[7] = system: Escherichia coli ATCC 10536; conditions: ATCC10536, agar two-fold dilution, 37° C., 20 hours
Summary of the method: as §1

[8] = system: Escherichia coli ATCC 25922; conditions: ATCC25922, agar two-fold dilution, 37° C., 20 hours
Summary of the method: as §1

[9] = system: Klebsiella pneumoniae ATCC 10031; conditions: ATCC10031, ATCC 10031, agar two-fold dilution, 37° C., 20 hours, read-out: MIC
Summary of the method: as §1

[10] = system: Micrococcus luteus ATCC 9341; conditions: ATCC9341, ATCC 9341, agar two-fold dilution, 37° C., 20 hours, read-out: MIC
Summary of the method: as §1

[11] = system: Morganella morganii ATCC 8076h; conditions: ATCC8076H, agar two-fold dilution, 37° C., 20 hours
Summary of the method: as §1

[12] = system: Proteus mirabilis ATCC 25933; conditions: ATCC25933, ATCC 25933, agar two-fold dilution, 37° C., 20 hours, read-out: MIC
Summary of the method: as §1

[13] = system: Proteus vulgaris ATCC 6059; conditions: ATCC6059, ATCC 6059, agar two-fold dilution, 37° C., 20 hours, read-out: MIC
Summary of the method: as §1

[14] = system: Providencia rettgeri ATCC 9250; conditions: ATCC9250, agar two-fold dilution, 37° C., 20 hours
Summary of the method: as §1

[15] = system: Pseudomonas aeruginosa ATCC 10145; conditions: ATCC10145, ATCC 10145, agar two-fold dilution, 37° C., 20 hours, read-out: MIC
Summary of the method: as §1

[16] = system: Pseudomonas aeruginosa ATCC 25619; conditions: ATCC25619, ATCC 25619, agar two-fold dilution, 37° C., 20 hours, read-out: MIC
Summary of the method: as §1

[17] = system: Pseudomonas aeruginosa ATCC 27853; conditions: ATCC27853, ATCC 27853, agar two-fold dilution, 37° C., 20 hours, read-out: MIC
Summary of the method: as §1

[18] = system: Salmonella typhimurium ATCC 14028; conditions: Salmonella enterica; ATCC 14028; agar two-fold dilution, 37° C., 20 hours; read-out: MIC
Summary of the method: as §1

[19] = system: Serratia marcescens ATCC 27117; conditions: ATCC27117, ATCC 27117, agar two-fold dilution, 37° C., 20 hours, read-out: MIC
Summary of the method: as §1

[20] = system: Shigella flexneri ATCC 11836; conditions: ATCC11836, agar two-fold dilution, 37° C., 20 hours
Summary of the method: as §1

[21] = system: Shigella sonnei ATCC 11060; conditions: ATCC11060, ATCC 11060, agar two-fold dilution, 37° C., 20 hours, read-out: MIC
Summary of the method: as §1

[22] = system: Staphylococcus aureus ATCC 10537; conditions: ATCC10537, ATCC 10537, agar two-fold dilution, 37° C., 20 hours, read-out: MIC
Summary of the method: as §1

[23] = system: Staphylococcus aureus ATCC 6538p; conditions: ATCC6538P, ATCC 6538p, agar two-fold dilution, 37° C., 20 hours, read-out: MIC
Summary of the method: as §1

[24] = system: Staphylococcus epidermidis ATCC 12228; conditions: ATCC12228, ATCC 12228, agar two-fold dilution, 37° C., 20 hours, read-out: MIC
Summary of the method: as §1

[25] = system: Streptococcus faecalis ATCC 29212; conditions: Enterococcus faecalis, ATCC29212; ATCC 29212; agar two-fold dilution, 37° C., 20 hours; read-out: MIC
Summary of the method: as §1

| Structure (SMILES) | MIC [1] [mg/L] | MIC [2] [mg/L] | MIC [3] [mg/L] | MIC [4] [mg/L] | MIC [5] [mg/L] | MIC [6] [mg/L] | MIC [7] [mg/L] | MIC [8] [mg/L] | MIC [9] [mg/L] | MIC [10] [mg/L] | MIC [11] [mg/L] | MIC [12] [mg/L] | MIC [13] [mg/L] | MIC [14] [mg/L] | MIC [15] [mg/L] | MIC [16] [mg/L] | MIC [17] [mg/L] | MIC [18] [mg/L] | MIC [19] [mg/L] | MIC [20] [mg/L] | other results |
| --- | --- | --- | --- | --- | --- | --- | --- | --- | --- | --- | --- | --- | --- | --- | --- | --- | --- | --- | --- | --- | --- |
| CC(C)(O/N=C(\C(=O)NC1C(=O)N2C(C(=O)[O-])=C(CSc3nc(N)cc(N)[n+]3-c3ccc(O)cc3)CSC12)c1csc(N)n1)C(=O)O (stereo not shown) [Compound I-36] | 16 (≈ 22.8 µM) | 32 (≈ 45.6 µM) | 0.13 (≈ 0.185 µM) | 0.25 (≈ 0.356 µM) | 2 (≈ 2.85 µM) | 0.063 (≈ 0.0898 µM) | 0.25 (≈ 0.356 µM) | 0.25 (≈ 0.356 µM) | 0.13 (≈ 0.185 µM) | 0.25 (≈ 0.356 µM) | ≤ 0.008 | 0.13 (≈ 0.185 µM) | 0.13 (≈ 0.185 µM) | ≤ 0.008 | 2 (≈ 2.85 µM) | 1 (≈ 1.42 µM) | 1 (≈ 1.42 µM) | 0.5 (≈ 0.712 µM) | 0.5 (≈ 0.712 µM) | 0.063 (≈ 0.0898 µM) | MIC [21]: 0.25 mg/L (≈ 0.356 µM); MIC [22]: 2 mg/L (≈ 2.85 µM); MIC [23]: 4 mg/L (≈ 5.7 µM); MIC [24]: 2 mg/L (≈ 2.85 µM); MIC [25]: > 128 mg/L |
| CCO/N=C(\C(=O)NC1C(=O)N2C(C(=O)[O-])=C(CSc3nc(N)cc(N)[n+]3-c3ccc(Cl)cc3)CSC12)c1csc(N)n1 (stereo not shown) [Compound I-40] | 16 (≈ 24.2 µM) | 16 (≈ 24.2 µM) | 0.063 (≈ 0.0951 µM) | 1 (≈ 1.51 µM) | 2 (≈ 3.02 µM) | 0.13 (≈ 0.196 µM) | 0.5 (≈ 0.755 µM) | 0.5 (≈ 0.755 µM) | 0.031 (≈ 0.0468 µM) | 0.016 (≈ 0.0242 µM) | 0.016 (≈ 0.0242 µM) | 0.5 (≈ 0.755 µM) | 0.5 (≈ 0.755 µM) | ≤ 0.008 | 16 (≈ 24.2 µM) | 2 (≈ 3.02 µM) | 8 (≈ 12.1 µM) | 2 (≈ 3.02 µM) | 1 (≈ 1.51 µM) | 0.25 (≈ 0.378 µM) | MIC [21]: 0.5 mg/L (≈ 0.755 µM); MIC [22]: 0.25 mg/L (≈ 0.378 µM); MIC [23]: 0.5 mg/L (≈ 0.755 µM); MIC [24]: 0.13 mg/L (≈ 0.196 µM); MIC [25]: 32 mg/L (≈ 48.3 µM) |
| C=CCO/N=C(\C(=O)NC1C(=O)N2C(C(=O)[O-])=C(CSc3nc(N)cc(N)[n+]3CC)CSC12)c1csc(N)n1 (stereo not shown) [Compound I-50] | 4 (≈ 6.76 µM) | 8 (≈ 13.5 µM) | 0.13 (≈ 0.22 µM) | 0.13 (≈ 0.22 µM) | 0.5 (≈ 0.845 µM) | 0.016 (≈ 0.027 µM) | 0.13 (≈ 0.22 µM) | 0.13 (≈ 0.22 µM) | ≤ 0.008 | ≤ 0.008 | ≤ 0.008 | 0.25 (≈ 0.423 µM) | 0.25 (≈ 0.423 µM) | ≤ 0.008 | 4 (≈ 6.76 µM) | 1 (≈ 1.69 µM) | 4 (≈ 6.76 µM) | 0.5 (≈ 0.845 µM) | 0.25 (≈ 0.423 µM) | 0.031 (≈ 0.0524 µM) | MIC [21]: 0.13 mg/L (≈ 0.22 µM); MIC [22]: 0.13 mg/L (≈ 0.22 µM); MIC [23]: 0.13 mg/L (≈ 0.22 µM); MIC [24]: 0.063 mg/L (≈ 0.106 µM); MIC [25]: 8 mg/L (≈ 13.5 µM) |
| C=CC[n+]1c(N)cc(N)nc1SCC1=C(C(=O)[O-])N2C(=O)C(NC(=O)/C(=N\OC(C)(C)C(=O)O)c3csc(N)n3)C2SC1 (stereo not shown) [Compound I-3] | 4 (≈ 6.16 µM) | 64 (≈ 98.5 µM) | 0.5 (≈ 0.77 µM) | 0.13 (≈ 0.2 µM) | 2 (≈ 3.08 µM) | 0.031 (≈ 0.0477 µM) | 0.13 (≈ 0.2 µM) | 0.13 (≈ 0.2 µM) | 0.063 (≈ 0.097 µM) | 0.25 (≈ 0.385 µM) | ≤ 0.008 | 0.031 (≈ 0.0477 µM) | 0.031 (≈ 0.0477 µM) | ≤ 0.008 | 2 (≈ 3.08 µM) | 1 (≈ 1.54 µM) | 2 (≈ 3.08 µM) | 0.25 (≈ 0.385 µM) | 0.13 (≈ 0.2 µM) | 0.031 (≈ 0.0477 µM) | MIC [21]: 0.063 mg/L (≈ 0.097 µM); MIC [22]: 2 mg/L (≈ 3.08 µM); MIC [23]: 4 mg/L (≈ 6.16 µM); MIC [24]: 2 mg/L (≈ 3.08 µM); MIC [25]: > 128 mg/L |
